The nature of the assay: Concentration dependent inactivation of gGamma-amino-N-butyrate transaminase.

`N[C@@H]1C=CC[C@H](C(=O)O)C1` [5-Amino-cyclohex-3-enecarboxylic acid] showed a Ki of 2300 µM.

The record behind these values is BindingDB's records for doi:10.1021/jm020134i (Northwestern University, 2002).
